# Reference: ChEMBL document CHEMBL4420076, “Amylin and calcitonin receptor agonist” (2017)
# Numbered stars: 1 amine (or outer) side, 2 acyl side, 3 side chain; on linkers, the order of the positions; unused ones are H or OH. Side chains are listed from the residue outwards. Peptide text beside a SMILES is read from it. * marks the point of attachment. C20 diacid = O=C(O)CCCCCCCCCCCCCCCCCCC(=O)*; γGlu = O=C(O)[C@H](CCC(=O)[*:2])N[*:1]
# What was measured:
# Rattus norvegicus [1] = assay: Reduction in food intake in Sprague-Dawley rat at 3 nmol/kg measured 0 to 24 hrs post dose relative to control; assay type: functional; design: scale not given: the % may be the effect or the level left
# [2] = biological target: T1, Amylin receptor AMY3; CALCR/RAMP3 (Homo sapiens, UniProt O60896+P30988); assay: Agonist activity at human amylin receptor expressed in BHK570 cells co-expressing RAMP3 assessed as increase in intracellular cAMP concentration incubated for 3 hrs in absence of albumin by CRE luciferase reporter gene assay; assay type: functional, cell-based
# T1 sequence (P30988 whole entry): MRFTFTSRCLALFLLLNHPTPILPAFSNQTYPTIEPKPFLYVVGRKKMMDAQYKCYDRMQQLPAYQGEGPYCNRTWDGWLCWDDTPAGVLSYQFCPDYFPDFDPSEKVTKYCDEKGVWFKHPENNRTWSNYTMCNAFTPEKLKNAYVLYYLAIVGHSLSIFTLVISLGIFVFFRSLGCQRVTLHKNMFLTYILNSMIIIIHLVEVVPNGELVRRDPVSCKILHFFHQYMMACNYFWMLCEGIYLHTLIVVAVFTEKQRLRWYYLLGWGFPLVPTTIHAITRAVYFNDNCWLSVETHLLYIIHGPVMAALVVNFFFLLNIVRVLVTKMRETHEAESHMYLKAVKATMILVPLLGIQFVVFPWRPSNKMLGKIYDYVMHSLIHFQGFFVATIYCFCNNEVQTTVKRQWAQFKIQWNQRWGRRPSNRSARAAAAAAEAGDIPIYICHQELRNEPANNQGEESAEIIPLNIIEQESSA
# T1 sequence (O60896 whole entry): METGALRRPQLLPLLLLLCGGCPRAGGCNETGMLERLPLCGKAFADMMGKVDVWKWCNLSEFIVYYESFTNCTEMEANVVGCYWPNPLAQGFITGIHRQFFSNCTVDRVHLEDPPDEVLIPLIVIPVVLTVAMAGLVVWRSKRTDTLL
# [3] = Stability in pH 7.5 buffer assessed as lag time for fibril formation at 1 uM by Thioflavin T based fluorescence assay; assay type: physicochemical; conditions: pH 7.5, 1 µM
# [4] = Stability in pH 7.5 buffer assessed as compound recovery at 1 uM by Thioflavin T based fluorescence assay; assay type: physicochemical; conditions: read-out: Drug recovery
# [5] = Solubility in 100 mM bistrispropane buffer at pH 6.5 incubated for 18 hrs by UPLC analysis; assay type: physicochemical
# Calcitonin receptor [6] = biological target: T2, Calcitonin receptor (Homo sapiens, UniProt P30988); assay: Agonist activity at human calcitonin receptor expressed in BHK570 cells assessed as increase in intracellular cAMP concentration incubated for 3 hrs in presence of 10% FBS by CRE luciferase reporter gene assay; assay type: functional, cell-based
# T2 sequence (P30988 whole entry): T1 sequence (P30988 whole entry)
# [7] = Solubility in 100 mM bistrispropane buffer at pH 8.0 incubated for 18 hrs by UPLC analysis; assay type: physicochemical
# [8] = Solubility in 100 mM glycylglycine buffer at pH 4.0 incubated for 18 hrs by UPLC analysis; assay type: physicochemical
# Calcitonin receptor [9] = biological target: T2, Calcitonin receptor; assay: Agonist activity at human calcitonin receptor expressed in BHK570 cells assessed as increase in intracellular cAMP concentration incubated for 3 hrs in absence of albumin by CRE luciferase reporter gene assay; assay type: functional, cell-based
# [10] = Solubility in 100 mM bistrispropane buffer at pH 7.0 incubated for 18 hrs by UPLC analysis; assay type: physicochemical
# [11] = Solubility in 100 mM bistrispropane buffer at pH 7.5 incubated for 18 hrs by UPLC analysis; assay type: physicochemical
# [12] = biological target: T1, Amylin receptor AMY3; CALCR/RAMP3; assay: Agonist activity at human amylin receptor expressed in BHK570 cells co-expressing RAMP3 assessed as increase in intracellular cAMP concentration incubated for 3 hrs in presence of 10% FBS by CRE luciferase reporter gene assay; assay type: functional, cell-based
# Rattus norvegicus [13] = assay: Reduction in food intake in Sprague-Dawley rat at 3 nmol/kg measured 24 to 48 hrs post dose relative to control; assay type: functional; design: scale not given: the % may be the effect or the level left
# [14] = biological target: T1, Amylin receptor AMY3; CALCR/RAMP3; assay: Displacement of [125I]-labeled rat amylin from human amylin receptor expressed in BHK tkts13 whole cells co-expressing RAMP3 incubated for 60 mins by scintillation proximity assay; assay type: cell-based
# [15] = Solubility in 100 mM glycylglycine buffer at pH 3.0 incubated for 18 hrs by UPLC analysis; assay type: physicochemical
# [16] = biological target: T3, Amylin receptor AMY3; CALCR/RAMP3 (Rattus norvegicus, UniProt P32214+Q9JJ73); assay: Displacement of [125I]-labeled rat amylin from rat amylin receptor expressed in BHK tkts13 cell membranes co-expressing RAMP3 incubated for 120 mins by scintillation proximity assay
# T3 sequence (P32214 whole entry): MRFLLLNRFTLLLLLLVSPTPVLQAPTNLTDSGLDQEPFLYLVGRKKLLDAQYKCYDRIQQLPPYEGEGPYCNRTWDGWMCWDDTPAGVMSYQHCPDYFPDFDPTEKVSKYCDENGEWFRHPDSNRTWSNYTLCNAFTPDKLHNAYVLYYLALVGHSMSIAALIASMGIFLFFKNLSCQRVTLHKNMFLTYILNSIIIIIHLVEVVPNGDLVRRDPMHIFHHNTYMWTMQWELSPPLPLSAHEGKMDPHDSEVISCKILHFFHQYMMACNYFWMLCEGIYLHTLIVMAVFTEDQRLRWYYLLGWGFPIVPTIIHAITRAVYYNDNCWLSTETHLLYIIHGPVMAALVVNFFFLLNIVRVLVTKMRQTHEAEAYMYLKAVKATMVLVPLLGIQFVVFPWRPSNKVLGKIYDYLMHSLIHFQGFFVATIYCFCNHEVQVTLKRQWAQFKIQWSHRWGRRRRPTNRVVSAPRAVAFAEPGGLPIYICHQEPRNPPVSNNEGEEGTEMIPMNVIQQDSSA
# T3 sequence (Q9JJ73 whole entry): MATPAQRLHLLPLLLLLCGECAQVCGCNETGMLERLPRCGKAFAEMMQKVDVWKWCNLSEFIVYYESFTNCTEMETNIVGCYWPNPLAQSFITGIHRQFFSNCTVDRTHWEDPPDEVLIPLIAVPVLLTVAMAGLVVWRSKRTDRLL
# [17] = Solubility in 100 mM bistrispropane buffer at pH 6.0 incubated for 18 hrs by UPLC analysis; assay type: physicochemical
# [18] = Solubility in 100 mM glycylglycine buffer at pH 5.0 incubated for 18 hrs by UPLC analysis; assay type: physicochemical
SMILES,Activity (Rattus norvegicus [1]) [%],EC50 [2] [nM],Time [3] [h],remaining at 1 µM [4] [%],solubility at 18 h [5] [µM],EC50 (Calcitonin receptor [6]) [nM],solubility at 18 h [7] [µM],solubility at 18 h [8] [µM],EC50 (Calcitonin receptor [9]) [nM],solubility at 18 h [10] [µM],solubility at 18 h [11] [µM],EC50 [12] [nM],Activity (Rattus norvegicus [13]) [%],IC50 [14] [nM],solubility at 18 h [15] [µM],IC50 [16] [nM],solubility at 18 h [17] [µM],solubility at 18 h [18] [µM]
CC(C)C[C@H](NC(=O)CNC(=O)[C@H](CO)NC(=O)[C@H](C)NC(=O)COCCOCCNC(=O)COCCOCCNC(=O)CC[C@H](NC(=O)CCCCCCCCCCCCCCCCC(=O)O)C(=O)O)C(=O)N[C@@H](CO)C(=O)N[C@H](C(=O)N[C@@H](C)C(=O)N[C@H](C(=O)N[C@@H](CC(C)C)C(=O)NCC(=O)N[C@@H](CCCNC(=N)N)C(=O)N[C@@H](CC(C)C)C(=O)N[C@@H](CO)C(=O)N[C@@H](CCC(N)=O)C(=O)N[C@@H](CCC(=O)O)C(=O)N[C@@H](CC(C)C)C(=O)N[C@@H](Cc1cnc[nH]1)C(=O)N[C@@H](CCC(=O)O)C(=O)N[C@@H](CC(C)C)C(=O)N[C@@H](CCC(N)=O)C(=O)N[C@H](C(=O)N[C@@H](Cc1ccc(O)cc1)C(=O)N1CCC[C@H]1C(=O)N[C@@H](CCCNC(=N)N)C(=O)N[C@H](C(=O)N[C@@H](CCC(=O)O)C(=O)N[C@H](C(=O)NCC(=O)N[C@@H](CO)C(=O)NCC(=O)N[C@H](C(=O)N[C@@H](Cc1ccc(O)cc1)C(N)=O)[C@@H](C)O)[C@@H](C)O)[C@@H](C)O)[C@@H](C)O)C(C)C)[C@@H](C)O,0,0.05,> 45,100,≥ 200,0.038,≥ 200,≥ 200,0.022,≥ 200,≥ 200,0.08,0,0.801,≥ 200,0.357,≥ 200,–
CC(C)C[C@H](NC(=O)[C@H](C)NC(=O)[C@H](C)NC(=O)[C@@H](NC(=O)[C@H](CO)NC(=O)[C@H](CC(C)C)NC(=O)[C@H](CCC(=O)O)NC(=O)[C@H](CO)NC(=O)[C@H](C)NC(=O)CC[C@H](NC(=O)CCCCCCCCCCCCCCCCCCC(=O)O)C(=O)O)[C@@H](C)O)C(=O)NCC(=O)N[C@@H](CCCNC(=N)N)C(=O)N[C@@H](CC(C)C)C(=O)N[C@@H](CO)C(=O)N[C@@H](C)C(=O)N[C@@H](CCC(=O)O)C(=O)N[C@@H](CC(C)C)C(=O)N[C@@H](Cc1cnc[nH]1)C(=O)N[C@@H](CCC(=O)O)C(=O)N[C@@H](CC(C)C)C(=O)N[C@@H](C)C(=O)N[C@H](C(=O)N[C@@H](CC(C)C)C(=O)N1CCC[C@H]1C(=O)N[C@@H](CCCNC(=N)N)C(=O)N[C@H](C(=O)N[C@@H](CCC(=O)O)C(=O)N[C@H](C(=O)NCC(=O)N[C@@H](CO)C(=O)NCC(=O)N[C@@H](CO)C(=O)N1CCC[C@H]1C(N)=O)[C@@H](C)O)[C@@H](C)O)[C@@H](C)O ({C20 diacid-γGlu}-ASELSTAALGRLSAELHELATLPRTETGSGSP-NH2),49,0.013,> 45,100,≥ 200,0.029,≥ 200,≥ 200,0.014,≥ 200,≥ 200,0.051,79,–,≥ 200,–,≥ 200,≥ 200
CC(C)C[C@H](NC(=O)[C@H](C)NC(=O)[C@H](C)NC(=O)[C@@H](NC(=O)[C@H](CO)NC(=O)[C@H](CC(C)C)NC(=O)[C@H](CCC(=O)O)NC(=O)[C@H](CO)NC(=O)[C@H](C)N)[C@@H](C)O)C(=O)NCC(=O)N[C@@H](CCCNC(=N)N)C(=O)N[C@@H](CC(C)C)C(=O)N[C@@H](CO)C(=O)N[C@@H](C)C(=O)N[C@@H](CCCCNC(=O)CC[C@H](NC(=O)CCCCCCCCCCCCCCCCCCC(=O)O)C(=O)O)C(=O)N[C@@H](CC(C)C)C(=O)N[C@@H](Cc1cnc[nH]1)C(=O)N[C@@H](CCC(=O)O)C(=O)N[C@@H](CC(C)C)C(=O)N[C@@H](C)C(=O)N[C@H](C(=O)N[C@@H](CC(C)C)C(=O)N1CCC[C@H]1C(=O)N[C@@H](CCCNC(=N)N)C(=O)N[C@H](C(=O)N[C@@H](CCC(=O)O)C(=O)N[C@H](C(=O)NCC(=O)N[C@@H](CO)C(=O)NCC(=O)N[C@@H](CO)C(=O)N1CCC[C@H]1C(N)=O)[C@@H](C)O)[C@@H](C)O)[C@@H](C)O (H-ASELSTAALGRLSAK([γGlu-C20 diacid])LHELATLPRTETGSGSP-NH2),–,0.022,> 45,100,≥ 200,0.048,≥ 200,≥ 200,0.031,≥ 200,≥ 200,0.057,–,–,≥ 200,1.3,≥ 200,≥ 200
CC(C)C[C@H](NC(=O)CNC(=O)[C@H](CO)NC(=O)[C@H](C)NC(=O)CC[C@H](NC(=O)CCCCCCCCCCCCCCCCCCC(=O)O)C(=O)O)C(=O)N[C@@H](CO)C(=O)N[C@H](C(=O)N[C@@H](CC(C)C)C(=O)N[C@H](C(=O)N[C@@H](CC(C)C)C(=O)NCC(=O)N[C@@H](CCCNC(=N)N)C(=O)N[C@@H](CC(C)C)C(=O)N[C@@H](CO)C(=O)N[C@@H](CCC(N)=O)C(=O)N[C@@H](CCC(=O)O)C(=O)N[C@@H](CC(C)C)C(=O)N[C@@H](Cc1cnc[nH]1)C(=O)N[C@@H](CCC(=O)O)C(=O)N[C@@H](CC(C)C)C(=O)N[C@@H](CCC(N)=O)C(=O)N[C@H](C(=O)N[C@@H](Cc1ccc(O)cc1)C(=O)N1CCC[C@H]1C(=O)N[C@@H](CCCNC(=N)N)C(=O)N[C@H](C(=O)N[C@@H](CCC(=O)O)C(=O)N[C@H](C(=O)NCC(=O)N[C@@H](CO)C(=O)N[C@@H](CCC(N)=O)C(=O)N[C@H](C(=O)N[C@@H](Cc1ccc(O)cc1)C(N)=O)[C@@H](C)O)[C@@H](C)O)[C@@H](C)O)[C@@H](C)O)C(C)C)[C@@H](C)O ({C20 diacid-γGlu}-ASGLSTLVLGRLSQELHELQTYPRTETGSQTY-NH2),34,0.052,8.4,90,≥ 200,0.142,≥ 200,–,0.04,≥ 200,≥ 200,–,24,1.48,≥ 200,0.091,–,–
